{"source": "patent US20170045529A1", "about": "“METHODS OF MEASURING ANTIGEN-SPECIFIC T CELLS” (ImmusanT, Inc., priority 2014, published 2017)", "assay_type_in_all_cases": "cell-based, human", "key": {"[1]": {"test_system": "whole blood", "assay": "Whole blood IFN-γ release to peptide pools and individual peptides, MAGPIX multiplex bead assay (Example 3)", "details": "10 uM"}, "[2]": {"test_system": "whole blood", "assay": "Whole blood IL-2 release to peptide pools and individual peptides, MAGPIX multiplex bead assay (Example 3)", "details": "10 uM"}, "[3]": {"test_system": "whole blood", "assay": "Whole blood IP-10 release to peptide pools and individual peptides, MAGPIX multiplex bead assay (Example 3)", "details": "Table 10C, 10 uM"}, "[4]": {"details": "Subject 1 (HLA-DQ 2.5, 8), day 0 of oral challenge"}, "[5]": {"details": "Subject 1 (HLA-DQ 2.5, 8), day 6 of oral challenge"}, "[6]": {"details": "Subject 2 (HLA-DQ 2.5, 8), day 0 of oral challenge"}, "[7]": {"details": "Subject 2 (HLA-DQ 2.5, 8), day 6 of oral challenge"}, "[8]": {"details": "Subject 6 (HLA-DQ 2.5), day 0 of oral challenge"}, "[9]": {"details": "Subject 6 (HLA-DQ 2.5), day 6 of oral challenge"}, "[10]": {"details": "Subject 7 (HLA-DQ 2.5, 8), day 0 of oral challenge"}, "[11]": {"details": "Subject 7 (HLA-DQ 2.5, 8), day 6 of oral challenge"}, "[12]": {"details": "Subject 1, day 0 since commencing oral challenge"}, "[13]": {"details": "Subject 1, day 6 since commencing oral challenge"}, "[14]": {"details": "Subject 2, day 0 since commencing oral challenge"}, "[15]": {"details": "Subject 2, day 6 since commencing oral challenge"}, "[16]": {"details": "Subject 6, day 0 since commencing oral challenge"}, "[17]": {"details": "Subject 6, day 6 since commencing oral challenge"}, "[18]": {"details": "Subject 7, day 0 since commencing oral challenge"}, "[19]": {"details": "Subject 7, day 6 since commencing oral challenge"}}, "note": "Non-standard residues stand in square brackets, D forms with d. pGlu = O=C1CC[C@@H](C(=O)O)N1", "data": [{"substance": "(pE)PEQPIPEQPQPYPQQ-NH2 ([pGlu]PEQPIPEQPQPYPQQ-NH2; SMILES CC[C@H](C)[C@H](NC(=O)[C@@H]1CCCN1C(=O)[C@H](CCC(N)=O)NC(=O)[C@H](CCC(=O)O)NC(=O)[C@@H]1CCCN1C(=O)[C@@H]1CCC(=O)N1)C(=O)N1CCC[C@H]1C(=O)N[C@@H](CCC(=O)O)C(=O)N[C@@H](CCC(N)=O)C(=O)N1CCC[C@H]1C(=O)N[C@@H](CCC(N)=O)C(=O)N1CCC[C@H]1C(=O)N[C@@H](Cc1ccc(O)cc1)C(=O)N1CCC[C@H]1C(=O)N[C@@H](CCC(N)=O)C(=O)N[C@@H](CCC(N)=O)C(N)=O)", "values": [{"measurement": "Whole blood IFNg release, Concentration", "setting": "[1]; [4]", "value": 42, "unit": "pg/mL"}, {"measurement": "Whole blood IFNg release, Fold-change over medium only", "setting": "[1]; [4]", "value": 0.76}, {"measurement": "Whole blood IFNg release, Concentration", "setting": "[1]; [5]", "value": 72, "unit": "pg/mL"}, {"measurement": "Whole blood IFNg release, Fold-change over medium only", "setting": "[1]; [5]", "value": 1.09}, {"measurement": "Whole blood IFNg release, Concentration", "setting": "[1]; [6]", "value": 3.3, "unit": "pg/mL"}, {"measurement": "Whole blood IFNg release, Fold-change over medium only", "setting": "[1]; [6]", "value": 0.85}, {"measurement": "Whole blood IFNg release, Concentration", "setting": "[1]; [7]", "value": 8.6, "unit": "pg/mL"}, {"measurement": "Whole blood IFNg release, Fold-change over medium only", "setting": "[1]; [7]", "value": 1.77}, {"measurement": "Whole blood IFNg release, Concentration", "setting": "[1]; [8]", "value": 96, "unit": "pg/mL"}, {"measurement": "Whole blood IFNg release, Fold-change over medium only", "setting": "[1]; [8]", "value": 0.99}, {"measurement": "Whole blood IFNg release, Concentration", "setting": "[1]; [9]", "value": 278, "unit": "pg/mL"}, {"measurement": "Whole blood IFNg release, Fold-change over medium only", "setting": "[1]; [9]", "value": 2.84}, {"measurement": "Whole blood IFNg release, Concentration", "setting": "[1]; [10]", "value": 170, "unit": "pg/mL"}, {"measurement": "Whole blood IFNg release, Fold-change over medium only", "setting": "[1]; [10]", "value": 0.71}, {"measurement": "Whole blood IFNg release, Concentration", "setting": "[1]; [11]", "value": 102, "unit": "pg/mL"}, {"measurement": "Whole blood IFNg release, Fold-change over medium only", "setting": "[1]; [11]", "value": 0.68}, {"measurement": "Whole blood IL-2 release, Concentration", "setting": "[2]; [4]", "value": 3.2, "unit": "pg/mL"}, {"measurement": "Whole blood IL-2 release, Fold-change over medium only", "setting": "[2]; [4]", "value": 1.00}, {"measurement": "Whole blood IL-2 release, Concentration", "setting": "[2]; [5]", "value": 3.2, "unit": "pg/mL"}, {"measurement": "Whole blood IL-2 release, Fold-change over medium only", "setting": "[2]; [5]", "value": 1.00}, {"measurement": "Whole blood IL-2 release, Concentration", "setting": "[2]; [6]", "value": 3.2, "unit": "pg/mL"}, {"measurement": "Whole blood IL-2 release, Fold-change over medium only", "setting": "[2]; [6]", "value": 1.00}, {"measurement": "Whole blood IL-2 release, Concentration", "setting": "[2]; [7]", "value": 22.4, "unit": "pg/mL"}, {"measurement": "Whole blood IL-2 release, Fold-change over medium only", "setting": "[2]; [7]", "value": 7.00}, {"measurement": "Whole blood IL-2 release, Concentration", "setting": "[2]; [8]", "value": 23.3, "unit": "pg/mL"}, {"measurement": "Whole blood IL-2 release, Fold-change over medium only", "setting": "[2]; [8]", "value": 4.71}, {"measurement": "Whole blood IL-2 release, Concentration", "setting": "[2]; [9]", "value": 134.3, "unit": "pg/mL"}, {"measurement": "Whole blood IL-2 release, Fold-change over medium only", "setting": "[2]; [9]", "value": 31.67}, {"measurement": "Whole blood IL-2 release, Concentration", "setting": "[2]; [10]", "value": 106.1, "unit": "pg/mL"}, {"measurement": "Whole blood IL-2 release, Fold-change over medium only", "setting": "[2]; [10]", "value": 1.69}, {"measurement": "Whole blood IL-2 release, Concentration", "setting": "[2]; [11]", "value": 27.8, "unit": "pg/mL"}, {"measurement": "Whole blood IL-2 release, Fold-change over medium only", "setting": "[2]; [11]", "value": 0.66}, {"measurement": "Whole blood IP-10 release, Concentration", "setting": "[3]; [12]", "value": 235, "unit": "pg/mL"}, {"measurement": "Whole blood IP-10 release, Fold-change over medium only", "setting": "[3]; [12]", "value": 0.89}, {"measurement": "Whole blood IP-10 release, Concentration", "setting": "[3]; [13]", "value": 325, "unit": "pg/mL"}, {"measurement": "Whole blood IP-10 release, Fold-change over medium only", "setting": "[3]; [13]", "value": 0.97}, {"measurement": "Whole blood IP-10 release, Concentration", "setting": "[3]; [14]", "value": 336, "unit": "pg/mL"}, {"measurement": "Whole blood IP-10 release, Fold-change over medium only", "setting": "[3]; [14]", "value": 1.26}, {"measurement": "Whole blood IP-10 release, Concentration", "setting": "[3]; [15]", "value": 1269, "unit": "pg/mL"}, {"measurement": "Whole blood IP-10 release, Fold-change over medium only", "setting": "[3]; [15]", "value": 4.06}, {"measurement": "Whole blood IP-10 release, Concentration", "setting": "[3]; [16]", "value": 3409, "unit": "pg/mL"}, {"measurement": "Whole blood IP-10 release, Fold-change over medium only", "setting": "[3]; [16]", "value": 12.30}, {"measurement": "Whole blood IP-10 release, Concentration", "setting": "[3]; [17]", "value": 10000, "unit": "pg/mL"}, {"measurement": "Whole blood IP-10 release, Fold-change over medium only", "setting": "[3]; [17]", "value": 49.76}, {"measurement": "Whole blood IP-10 release, Concentration", "setting": "[3]; [18]", "value": 713, "unit": "pg/mL"}, {"measurement": "Whole blood IP-10 release, Fold-change over medium only", "setting": "[3]; [18]", "value": 0.96}, {"measurement": "Whole blood IP-10 release, Concentration", "setting": "[3]; [19]", "value": 2549, "unit": "pg/mL"}, {"measurement": "Whole blood IP-10 release, Fold-change over medium only", "setting": "[3]; [19]", "value": 2.86}]}]}
